Tests used:
Format in all cases: cell-based
GABAA receptor α4β3δ = GABAA receptor α4β3δ (Homo sapiens, UniProt P28472+P48169); experiment: whole-cell patch clamp, potentiation of GABA
GABAA receptor α1β2γ2 [1] = biological target: T1, GABAA receptor α1β2γ2 (Homo sapiens, UniProt P14867+P47870); experiment: whole-cell patch clamp, potentiation of GABA
GABAA receptor α1β2γ2 [2] = biological target: T1, GABAA receptor α1β2γ2; experiment: whole-cell patch clamp, potentiation of GABA-evoked currents at […]

T1 sequence (P14867 28-456): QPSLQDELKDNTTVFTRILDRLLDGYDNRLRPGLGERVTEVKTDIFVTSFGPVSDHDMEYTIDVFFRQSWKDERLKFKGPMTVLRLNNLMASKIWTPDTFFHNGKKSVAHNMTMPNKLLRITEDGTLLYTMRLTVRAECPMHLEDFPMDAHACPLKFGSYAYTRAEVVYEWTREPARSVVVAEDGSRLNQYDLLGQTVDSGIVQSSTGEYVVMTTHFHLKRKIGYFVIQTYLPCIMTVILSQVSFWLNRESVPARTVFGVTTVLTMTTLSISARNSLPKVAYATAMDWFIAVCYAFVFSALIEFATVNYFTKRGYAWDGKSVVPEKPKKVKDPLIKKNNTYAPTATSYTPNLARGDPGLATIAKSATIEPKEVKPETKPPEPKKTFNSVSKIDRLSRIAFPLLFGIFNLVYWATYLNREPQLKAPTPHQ
T1 sequence (P47870 26-512): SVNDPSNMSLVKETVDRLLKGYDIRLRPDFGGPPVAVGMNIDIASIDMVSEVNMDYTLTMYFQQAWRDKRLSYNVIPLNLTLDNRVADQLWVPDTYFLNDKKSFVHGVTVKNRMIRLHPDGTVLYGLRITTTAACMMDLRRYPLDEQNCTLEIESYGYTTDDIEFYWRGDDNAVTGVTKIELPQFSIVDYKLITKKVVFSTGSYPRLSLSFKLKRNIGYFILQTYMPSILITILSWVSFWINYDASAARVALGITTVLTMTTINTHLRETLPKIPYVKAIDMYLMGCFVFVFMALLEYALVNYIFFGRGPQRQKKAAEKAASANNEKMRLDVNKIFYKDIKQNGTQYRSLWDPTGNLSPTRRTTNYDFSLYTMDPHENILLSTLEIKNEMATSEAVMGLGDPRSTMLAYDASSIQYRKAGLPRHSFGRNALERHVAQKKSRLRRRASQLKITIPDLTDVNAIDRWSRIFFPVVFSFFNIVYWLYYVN
T1 sequence (P18507 40-475 partner): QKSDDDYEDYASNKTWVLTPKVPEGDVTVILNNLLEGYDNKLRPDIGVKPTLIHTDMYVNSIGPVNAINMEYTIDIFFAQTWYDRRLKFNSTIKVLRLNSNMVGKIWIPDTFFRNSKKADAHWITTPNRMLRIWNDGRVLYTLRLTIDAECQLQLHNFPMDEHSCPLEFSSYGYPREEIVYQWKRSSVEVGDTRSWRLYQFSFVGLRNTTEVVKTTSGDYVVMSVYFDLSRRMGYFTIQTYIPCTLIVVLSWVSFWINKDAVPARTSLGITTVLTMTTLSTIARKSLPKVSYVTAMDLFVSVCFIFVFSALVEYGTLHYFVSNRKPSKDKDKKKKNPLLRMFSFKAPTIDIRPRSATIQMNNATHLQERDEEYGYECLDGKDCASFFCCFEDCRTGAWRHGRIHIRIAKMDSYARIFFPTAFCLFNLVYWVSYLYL
Chain of GABAA receptor α4β3δ (P48169 36-554): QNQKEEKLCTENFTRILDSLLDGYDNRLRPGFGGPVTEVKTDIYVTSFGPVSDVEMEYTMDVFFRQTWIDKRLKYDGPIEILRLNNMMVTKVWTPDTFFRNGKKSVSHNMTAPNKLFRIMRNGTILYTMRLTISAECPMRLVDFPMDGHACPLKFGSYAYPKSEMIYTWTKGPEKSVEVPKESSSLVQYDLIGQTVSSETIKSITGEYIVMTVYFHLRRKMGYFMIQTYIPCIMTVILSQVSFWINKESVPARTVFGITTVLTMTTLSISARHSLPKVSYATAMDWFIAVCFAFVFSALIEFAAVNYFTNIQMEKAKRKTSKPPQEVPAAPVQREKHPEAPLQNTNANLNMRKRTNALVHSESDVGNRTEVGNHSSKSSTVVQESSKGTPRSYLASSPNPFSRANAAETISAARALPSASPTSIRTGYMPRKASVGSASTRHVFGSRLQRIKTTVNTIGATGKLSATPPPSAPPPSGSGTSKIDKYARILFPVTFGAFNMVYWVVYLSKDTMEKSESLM
Chain of GABAA receptor α4β3δ (P28472 26-473): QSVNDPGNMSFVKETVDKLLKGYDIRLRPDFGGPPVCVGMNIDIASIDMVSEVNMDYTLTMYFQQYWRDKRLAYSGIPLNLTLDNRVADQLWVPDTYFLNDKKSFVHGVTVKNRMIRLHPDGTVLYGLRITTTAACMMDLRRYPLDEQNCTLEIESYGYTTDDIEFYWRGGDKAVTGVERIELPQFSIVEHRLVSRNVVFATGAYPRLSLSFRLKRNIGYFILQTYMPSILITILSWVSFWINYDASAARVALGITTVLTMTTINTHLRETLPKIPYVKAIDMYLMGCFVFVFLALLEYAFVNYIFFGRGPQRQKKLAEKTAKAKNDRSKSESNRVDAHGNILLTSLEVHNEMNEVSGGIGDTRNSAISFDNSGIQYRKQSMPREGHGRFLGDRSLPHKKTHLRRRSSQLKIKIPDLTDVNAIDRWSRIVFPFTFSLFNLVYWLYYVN
Chain of GABAA receptor α4β3δ (O14764 25-452 partner): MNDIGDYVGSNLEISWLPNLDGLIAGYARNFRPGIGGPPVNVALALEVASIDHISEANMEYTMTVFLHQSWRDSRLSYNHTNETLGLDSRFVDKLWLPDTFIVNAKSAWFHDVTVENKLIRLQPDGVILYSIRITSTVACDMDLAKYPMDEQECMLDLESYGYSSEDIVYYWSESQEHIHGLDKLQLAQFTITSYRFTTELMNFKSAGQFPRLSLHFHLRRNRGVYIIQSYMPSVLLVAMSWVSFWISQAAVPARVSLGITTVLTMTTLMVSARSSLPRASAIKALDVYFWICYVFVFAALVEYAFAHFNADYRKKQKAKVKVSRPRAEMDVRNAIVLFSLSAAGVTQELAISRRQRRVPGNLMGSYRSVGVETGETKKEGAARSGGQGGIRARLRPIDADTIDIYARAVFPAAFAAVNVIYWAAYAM

Row | Molecule | EC50 (GABAA receptor α4β3δ) [nM] | EC50 (GABAA receptor α1β2γ2 [1]) [nM] | % potentiation at 10 μM (GABAA receptor α1β2γ2 [2]) [% potentiation at 10 µM]
1 | CC(=O)[C@H]1CC[C@H]2[C@@H]3CC[C@H]4C[C@H](O)CC[C@]4(C)[C@H]3CC[C@]12C [allopregnanolone] | 80 | 185 | 
2 | SGE-872 | 160 |  | 744

Source: paper PMC5544527 (Journal of neuroscience research, 2015)
